Tests used:
Type in all cases: in vivo
[1] = system: BALBc male mice; experiment: Ovalbumin-induced allergic rhinitis: eosinophil number in nasal mucosa (histology); conditions: under mucosa of anterior inferior turbinate, 400× magnification
Protocol: 3-week-old BALBc male mice weighing 15-25 g were divided into four groups each comprising 6 or 7 animals, and then bred in a specific pathogen-free (SPF) environment for 35 days. In order to induce allergic rhinitis, 10 μg of ovalbumin (grade V, Sigma Chemical Co., Phillipsberg, N.Y.) and 1 mg of aluminum hydroxide (Al(OH)3) gel were mixed with 0.3 ml phosphate buffered saline for at least 30 minutes to prepare an ovalbumin mixture. 0.1 ml of the mixture was injected into the abdominal cavity of the mice, and each at 5, 14 and 21 days later, injected once more into the abdominal cavity. At one week after the final injection into the abdominal cavity (28 days later), 30 μl phosphate buffered saline or a mixture of 100 μg ovalbumin with 30 μl phosphate buffered saline was administered into the nasal cavity using a micropipette. […] The administration of ovalalbumin into the nasal cavity and the pretreatment with the drugs before this administration were performed for 7 days, one time a day, and the next day after the administration for 7 days, the mice of all the groups was euthanized by inhalation with carbonic acid gas. […] The measured results were statistically analyzed by the Mann-Whitney U-test, using SPSS for Windows version 10 (SPSS Inc., Chicago), and were determined to be statistically significant at p<0.05.

[2] = system: BALBc male mice; experiment: Ovalbumin-induced allergic rhinitis: symptom score; conditions: 7 days, sneezing and nose scratching counted for 15 minutes
Protocol: 3-week-old BALBc male mice weighing 15-25 g were divided into four groups each comprising 6 or 7 animals, and then bred in a specific pathogen-free (SPF) environment for 35 days. In order to induce allergic rhinitis, 10 μg of ovalbumin (grade V, Sigma Chemical Co., Phillipsberg, N.Y.) and 1 mg of aluminum hydroxide (Al(OH)3) gel were mixed with 0.3 ml phosphate buffered saline for at least 30 minutes to prepare an ovalbumin mixture. 0.1 ml of the mixture was injected into the abdominal cavity of the mice, and each at 5, 14 and 21 days later, injected once more into the abdominal cavity. At one week after the final injection into the abdominal cavity (28 days later), 30 μl phosphate buffered saline or a mixture of 100 μg ovalbumin with 30 μl phosphate buffered saline was administered into the nasal cavity using a micropipette. […] Then, in each mouse, the number of expression of characteristic symptoms of allergic rhinitis, i.e., the number of expression of symptoms, such as sneezing and the action of scratching the nose, was measured for 15 minutes after a given period, and their sum was recorded as a symptom score. The symptom score was recorded as the mean of scores measured by two observers, and scores having at least 30% difference between the two observers were excluded.

[3] = system: SD mice; experiment: Anaphylaxis reaction caused by C48/80: mortality; conditions: pantoprazole 10 mg/kg tail vein 30 minutes before C48/80 10 mg/kg tail vein; survival for one hour
Protocol: SD mice weighing 200-220 g were divided into three groups consisting of a negative control group, a positive control group and a test group, each group consisting of eight animals.
30 minutes after this pretreatment, the negative control group was injected with a phosphate buffer saline through the tail vein, the positive control group and the test group were injected with 10 mg/kg of C48/80 through the tail vein. After the injection, the number of individuals died of anaphylaxis reaction caused by C48/80 was observed. The standard of death and survival was determined by whether or not the animals survive for one hour after C48/80 administration.

COc1ccnc(C[S+]([O-])c2nc3ccc(OC(F)F)cc3[nH]2)c1OC (centres unmarked) [Inventive composition, pantoprazole] was tested, and the “eosinophil number (row printed as Symptom score), Mean” value ([1]; pantoprazole 10 mg/kg) was 5.57, the “eosinophil number (row printed as Symptom score), Mean” value ([1]; pantoprazole 100 mg/kg) was 4.29 and the “Symptom score, Mean” value ([2]; pantoprazole 10 mg/kg into abdominal cavity 30 minutes before nasal ovalbumin) was 27.29. The “Symptom score, Mean” value ([2]; pantoprazole 100 mg/kg into abdominal cavity 30 minutes before nasal ovalbumin) was 48.00 and the “Mortality (number of dead individuals/number of total individuals)” value [3] was 4/8.
